“And” between values parts separate entries of the source, which are not always exact repeats. Identical values can stand only once. Numbers after ± are expanded uncertainties.
What was measured:
[1] = for vapor or sublimation pressure: Liquid, Rate of evaporation; for Normal melting temperature: Crystal, DTA
[2] = molar heat capacity at constant pressure; settings: 298.15 K; 101.33 kPa; Crystal; Small sample (50 mg) DSC
[3] = Molar enthalpy of transition or fusion; settings: Crystal; DSC

c1ccc2c(c1)ccc1ccccc12 [phenanthrene]
[1]
Settings | vapor or sublimation pressure
400 K | 0.1505 ± 0.019 kPa [middle of 4 runs]
405 K | 0.18 ± 0.023 kPa [middle of 4 runs]
410 K | 0.2218 ± 0.029 kPa [middle of 4 runs]
415 K | 0.2759 ± 0.036 kPa [middle of 4 runs]
420 K | 0.3417 ± 0.045 kPa [middle of 4 runs]
425 K | 0.427 ± 0.056 kPa [middle of 4 runs]
430 K | 0.5304 ± 0.07 kPa [middle of 4 runs]
435 K | 0.6576 ± 0.086 kPa [middle of 4 runs]
440 K | 0.8141 ± 0.11 kPa [middle of 4 runs]
445 K | 1.004 ± 0.13 kPa [middle of 4 runs]
450 K | 1.235 ± 0.16 kPa [middle of 4 runs]
455 K | 1.516 ± 0.19 kPa [middle of 4 runs]
460 K | 1.844 ± 0.23 kPa [middle of 4 runs]
465 K | 2.233 ± 0.28 kPa [middle of 4 runs]
470 K | 2.697 ± 0.33 kPa [middle of 4 runs]
475 K | 3.245 ± 0.4 kPa [middle of 4 runs]
480 K | 3.773 ± 0.45 kPa and 3.874 ± 0.48 kPa and 3.819 ± 0.47 kPa

NC(=O)c1ccccc1[N+](=O)[O-] [2-nitrobenzamide]
[1]
Settings | vapor or sublimation pressure
485.02 K | 0.5592 ± 0.071 kPa
485.04 K | 0.5538 ± 0.072 kPa
485.08 K | 0.5802 ± 0.068 kPa
490.02 K | 0.6682 ± 0.086 kPa
490.06 K | 0.6975 ± 0.088 kPa
490.07 K | 0.6914 ± 0.088 kPa
495 K | 0.8483 ± 0.11 kPa
495.01 K | 0.8342 ± 0.11 kPa
495.05 K | 0.8126 ± 0.1 kPa
500.01 K | 1.016 ± 0.13 kPa
500.05 K | 0.9934 ± 0.13 kPa
500.08 K | 1.036 ± 0.13 kPa
505 K | 1.234 ± 0.15 kPa
505.03 K | 1.212 ± 0.15 kPa
505.05 K | 1.264 ± 0.16 kPa
510.02 K | 1.487 ± 0.19 kPa
510.04 K | 1.531 ± 0.2 kPa
510.07 K | 1.503 ± 0.19 kPa
515.02 K | 1.877 ± 0.24 kPa
515.05 K | 1.829 ± 0.23 kPa
515.08 K | 1.822 ± 0.23 kPa
520.02 K | 2.233 ± 0.28 kPa
520.05 K | 2.227 ± 0.28 kPa
520.07 K | 2.203 ± 0.28 kPa
525.01 K | 2.884 ± 0.36 kPa and 2.697 ± 0.35 kPa
525.06 K | 2.718 ± 0.35 kPa
530.02 K | 3.274 ± 0.41 kPa
530.03 K | 3.315 ± 0.41 kPa
530.07 K | 3.29 ± 0.41 kPa
535.02 K | 3.942 ± 0.47 kPa
535.03 K | 3.951 ± 0.48 kPa
535.06 K | 3.957 ± 0.48 kPa

Settings | Molar enthalpy of transition or fusion [kcal/mol] | Normal melting temperature [°C] | molar heat capacity at constant pressure [J/K/mol]
[1] | – | 173.80 ± 0.4 | –
[2] | – | – | 220.96 ± 10
[3] | 6.63 ± 0.146 | – | –

NC(=O)c1cccc([N+](=O)[O-])c1 [3-nitrobenzamide]
[1]
Settings | vapor or sublimation pressure [kPa]
485 K | 0.7222 ± 0.096
485.02 K | 0.7094 ± 0.099
485.06 K | 0.6868 ± 0.1
490.01 K | 0.8798 ± 0.12
490.02 K | 0.868 ± 0.12
490.06 K | 0.84 ± 0.11
495.01 K | 1.068 ± 0.14
495.02 K | 1.057 ± 0.14
495.05 K | 1.021 ± 0.14
500 K | 1.286 ± 0.16
500.01 K | 1.284 ± 0.16
500.04 K | 1.246 ± 0.16
505.03 K | 1.495 ± 0.19
505.07 K | 1.556 ± 0.19
505.08 K | 1.557 ± 0.19
510 K | 1.794 ± 0.22
510.04 K | 1.867 ± 0.23
510.06 K | 1.872 ± 0.23
515.02 K | 2.228 ± 0.26
515.03 K | 2.226 ± 0.26
515.06 K | 2.146 ± 0.25
520.02 K | 2.545 ± 0.32
520.06 K | 2.654 ± 0.33
520.07 K | 2.633 ± 0.33
525.02 K | 3.119 ± 0.36
525.03 K | 3.091 ± 0.36
525.06 K | 3.009 ± 0.35
530 K | 3.525 ± 0.42
530.04 K | 3.638 ± 0.43
530.06 K | 3.596 ± 0.43
535.01 K | 4.145 ± 0.47
535.03 K | 4.119 ± 0.46
535.06 K | 4.215 ± 0.49

Settings | Molar enthalpy of transition or fusion [kcal/mol] | Normal melting temperature [°C] | molar heat capacity at constant pressure [J/K/mol]
[1] | – | 141.51 ± 0.42 | –
[2] | – | – | 237.57 ± 10
[3] | 5.87 ± 0.134 | – | –

NC(=O)c1ccc([N+](=O)[O-])cc1 [p-nitrobenzamide]
[1]
Settings | vapor or sublimation pressure
485.02 K | 0.6396 ± 0.1 kPa and 0.6809 ± 0.094 kPa
485.04 K | 0.5788 ± 0.12 kPa
485.1 K | 0.6701 ± 0.097 kPa
490.01 K | 0.8437 ± 0.11 kPa
490.03 K | 0.8038 ± 0.11 kPa
490.07 K | 0.7398 ± 0.1 kPa
490.08 K | 0.7145 ± 0.1 kPa
495.01 K | 1.021 ± 0.12 kPa and 0.9548 ± 0.12 kPa
495.05 K | 0.9568 ± 0.12 kPa
495.06 K | 0.871 ± 0.11 kPa
500.01 K | 1.06 ± 0.13 kPa
500.03 K | 1.229 ± 0.15 kPa
500.04 K | 1.142 ± 0.14 kPa
500.06 K | 1.154 ± 0.14 kPa
505 K | 1.286 ± 0.17 kPa
505.03 K | 1.474 ± 0.18 kPa
505.05 K | 1.352 ± 0.17 kPa
505.06 K | 1.416 ± 0.18 kPa
510 K | 1.671 ± 0.22 kPa
510.02 K | 1.683 ± 0.22 kPa
510.04 K | 1.565 ± 0.21 kPa
510.06 K | 1.777 ± 0.23 kPa
515.01 K | 2.113 ± 0.25 kPa and 2.01 ± 0.24 kPa
515.04 K | 2.03 ± 0.24 kPa
515.06 K | 1.895 ± 0.23 kPa
520.02 K | 2.452 ± 0.33 kPa
520.04 K | 2.289 ± 0.32 kPa
520.06 K | 2.527 ± 0.34 kPa
520.08 K | 2.386 ± 0.33 kPa
525.02 K | 3.001 ± 0.35 kPa
525.03 K | 2.837 ± 0.34 kPa
525.05 K | 2.926 ± 0.35 kPa
525.08 K | 2.758 ± 0.33 kPa
530.01 K | 3.298 ± 0.41 kPa
530.03 K | 3.568 ± 0.43 kPa
530.05 K | 3.382 ± 0.41 kPa
530.06 K | 3.455 ± 0.42 kPa
535.02 K | 3.943 ± 0.44 kPa
535.04 K | 4.206 ± 0.52 kPa
535.06 K | 4.019 ± 0.46 kPa
535.07 K | 4.152 ± 0.5 kPa

Settings | Molar enthalpy of transition or fusion [kcal/mol] | Normal melting temperature [°C] | molar heat capacity at constant pressure [J/K/mol]
[1] | – | 200.33 ± 0.62 | –
[2] | – | – | 212.65 ± 8.3
[3] | 7.19 ± 0.158 | – | –

From the NIST ThermoML archive (doi:10.1016/j.jct.2014.07.006)
